In patent publication US9776979B2, “EBI2 modulators” (Sanford-Burnham Medical Research Institute, priority 2013, dated 2017):

The molecules below were run against EBI2 (Homo sapiens, UniProt P32249) (assay: Cell-based luminescent assay (EBI2 modulation)). Details: cell-based luminescence; 7a,25-OHC final assay concentration 80 nM; 60 minutes incubation; read-out: IC50.
Procedure, shortened: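 Cells plated overnight at 37° C, then exposed to compound at 4-5 uM final with 80 nM 7a,25-OHC agonist for 60 min at 37° C. Luminescence read after 60 min detection at 25° C in the dark; values normalized to neutral and stimulator controls and plate-pattern corrected.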

EBI2, sequence (P32249 whole entry): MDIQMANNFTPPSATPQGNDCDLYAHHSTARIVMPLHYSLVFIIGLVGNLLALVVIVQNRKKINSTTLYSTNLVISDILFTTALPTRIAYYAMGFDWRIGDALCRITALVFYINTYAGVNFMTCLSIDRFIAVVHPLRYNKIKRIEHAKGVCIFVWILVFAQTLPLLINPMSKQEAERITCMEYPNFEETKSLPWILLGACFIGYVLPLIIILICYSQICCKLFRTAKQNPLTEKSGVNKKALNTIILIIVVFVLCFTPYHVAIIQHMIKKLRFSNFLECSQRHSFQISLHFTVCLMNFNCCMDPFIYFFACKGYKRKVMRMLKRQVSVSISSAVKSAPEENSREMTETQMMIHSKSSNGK

Row | SMILES | IC50 [nM]
1 | O=C(/C=C/c1ccc(Br)cc1)N1CCN(Cc2ccc(Cl)cc2F)CC1 [Compound C130, (2E)-3-(4-bromophenyl)-1-{4-[(4-chloro-2-fluorophenyl)methyl]piperazinyl}prop-2-en-1-one] | < 100
2 | O=C(/C=C/c1ccc(Br)cc1)N1CCN(Cc2ccc(F)cc2C(F)(F)F)CC1 [Compound C131, (2E)-3-(4-bromophenyl)-1-(4-{[4-fluoro-2-(trifluoromethyl)phenyl]methyl}piperazinyl)prop-2-en-1-one] | < 100
3 | O=C(C#Cc1cccc(Cl)c1Cl)N1CCN(C(=O)c2ccc(C(F)(F)F)cc2)CC1 [Compound C132, 3-(2,3-dichlorophenyl)-1-(4-{[4-(trifluoromethyl)phenyl]carbonyl}piperazinyl)prop-2-yn-1-one] | < 100
4 | O=C(c1ccc(C(F)(F)F)cc1)N1CCN(C(=O)c2cc3cc(C(F)(F)F)ccc3[nH]2)CC1 [Compound C133, 5-(trifluoromethyl)indol-2-yl 4-{[4-(trifluoromethyl)phenyl]carbonyl}piperazinyl ketone] | < 100
5 | O=C(c1ccc(F)cc1)N1CCN(C(=O)c2cc3cc(Br)ccc3[nH]2)CC1 [Compound C135, 5-bromoindol-2-yl 4-[(4-fluorophenyl)carbonyl]piperazinyl ketone] | < 100
6 | O=C(NCC1CCN(C(=O)/C=C/c2ccc(Br)cc2)CC1)c1ccc(F)cc1 [Compound C136, N-({1-[(2E)-3-(4-bromophenyl)prop-2-enoyl](4-piperidyl)}methyl)(4-fluorophenyl)carboxamide] | < 100
7 | O=C(C#Cc1ccc(C(F)(F)F)cc1)N1CCN(Cc2ccc(Cl)cc2)CC1 [Compound C137, 1-{4-[(4-chlorophenyl)methyl]piperazinyl}-3-[4-(trifluoromethyl)phenyl]prop-2-yn-1-one] | < 100

Now from value to molecule:

Row | IC50 [nM] | SMILES
8 | < 100 | O=C(C#Cc1ccc2c(c1)OCO2)N1CCN(C(=O)c2ccc(Br)cc2)CC1 [Compound C120, 3-(2H-benzo[3,4-d]1,3-dioxolen-5-yl)-1-{4-[(4-bromophenyl)carbonyl]piperazinyl}prop-2-yn-1-one]
9 | < 100 | Cc1ccc(C#CC(=O)N2CCN(Cc3ccc(F)cc3)CC2)cc1 [Compound C122, 1-{4-[(4-fluorophenyl)methyl]piperazinyl}-3-(4-methylphenyl)prop-2-yn-1-one]
10 | < 100 | O=C(c1cc2ccccc2s1)N1CCN(C(c2ccccc2)c2ccccc2)CC1 [Compound C123, benzo[b]thiophen-2-yl 4-(diphenylmethyl)piperazinyl ketone]
11 | < 100 | Cc1ccc(S(=O)(=O)N2CCN(C(=O)/C=C/c3ccc(F)cc3)CC2)cc1 [Compound C124, (2E)-3-(4-fluorophenyl)-1-{4-[(4-methylphenyl)sulfonyl]piperazinyl}prop-2-en-1-one]
12 | < 100 | O=C(c1cnc2ccccc2c1)N1CCN(C(c2ccccc2)c2ccccc2)CC1 [Compound C125, 4-(diphenylmethyl)piperazinyl 3-quinolyl ketone]
13 | < 100 | O=C(c1cc2cc(F)ccc2[nH]1)N1CCN(C(c2ccccc2)c2ccccc2)CC1 [Compound C126, 4-(diphenylmethyl)piperazinyl 5-fluoroindol-2-yl ketone]
14 | < 100 | O=C(c1cccc(Cl)c1)N1CCN(C(=O)c2cc3cc(C(F)(F)F)ccc3[nH]2)CC1 [Compound C127, 4-[(3-chlorophenyl)carbonyl]piperazinyl 5-(trifluoromethyl)indol-2-yl ketone]
15 | < 100 | O=C(C#Cc1ccc(F)cc1)N1CCN(C(=O)c2ccc(F)cc2)CC1 [Compound C128, 3-(4-fluorophenyl)-1-{4-[(4-fluorophenyl)carbonyl]piperazinyl}prop-2-yn-1-one]
16 | < 100 | O=C(C#Cc1cccc(Cl)c1)N1CCN(Cc2ccc(F)cc2)CC1 [Compound C129, 3-(3-chlorophenyl)-1-{4-[(4-fluorophenyl)methyl]piperazinyl}prop-2-yn-1-one]
